Literature values, collected in patent publication US4847261A, “Alkoxy cycloalkanol esters of dihydrolysergic acid having peripheral serotonin antagonists properties” (Eli Lilly and Company, priority 1988, dated 1989).

Key:
[1] = tested on: 5HT2 receptors; settings: in words; mediated by 5HT2 receptors; cited from earlier work
[2] = tested on: 5HT2 receptors; settings: in words; cited from earlier work

SMILES: CC(O)C(C)OC(=O)[C@@H]1C[C@@H]2c3cccc4c3c(cn4C(C)C)C[C@H]2N(C)C1 (stereo partly drawn) [LY53857, 1-isopropyl-6-methyl-8β-(1-methyl-2-hydroxy)propoxycarbonyl-5R-ergoline]
- antagonism of vascular contraction to serotonin [1]: potent antagonist
- peripheral serotonin antagonist activity among Garbrecht compounds [2]: most active peripheral serotonin antagonist
